Measured values: ChEMBL document CHEMBL1135623, “Synthesis and pharmacological evaluation of 1-[(1,2-diphenyl-1H-4-imidazolyl)methyl]-4-phenylpiperazines with clozapine-like mixed activities at dopamine D(2), serotonin, and GABA(A) receptors” (J Med Chem, 2002)

Assays:
[1] = molecular target: T1, 5-hydroxytryptamine receptor 1A (Rattus norvegicus, UniProt P19327); assay: In vitro binding affinity for serotonin 5-hydroxytryptamine 1A receptor fof rat cerebral cortex using [3H]8-OH-DPAT as radioligand; format: tissue-based
T1 sequence (P19327 whole entry): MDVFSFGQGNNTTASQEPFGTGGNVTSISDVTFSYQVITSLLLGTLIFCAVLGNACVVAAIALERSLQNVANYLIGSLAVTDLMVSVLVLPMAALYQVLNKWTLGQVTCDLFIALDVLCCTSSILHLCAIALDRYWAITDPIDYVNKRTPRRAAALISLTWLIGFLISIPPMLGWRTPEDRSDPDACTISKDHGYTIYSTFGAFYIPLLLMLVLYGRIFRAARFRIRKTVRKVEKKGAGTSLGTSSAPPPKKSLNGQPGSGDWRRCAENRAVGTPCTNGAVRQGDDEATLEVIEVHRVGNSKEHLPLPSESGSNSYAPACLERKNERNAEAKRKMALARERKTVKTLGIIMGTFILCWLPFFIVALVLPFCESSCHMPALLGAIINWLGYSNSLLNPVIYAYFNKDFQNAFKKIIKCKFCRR

[2] = molecular target: 5-hydroxytryptamine receptor 2A (Rattus norvegicus, UniProt P14842); assay: In vitro binding affinity for serotonin 5-hydroxytryptamine 2A receptor of rat cerebral cortex using [3H]ketanserin as radioligand; format: tissue-based
Sequence of 5-hydroxytryptamine receptor 2A (P14842 whole entry): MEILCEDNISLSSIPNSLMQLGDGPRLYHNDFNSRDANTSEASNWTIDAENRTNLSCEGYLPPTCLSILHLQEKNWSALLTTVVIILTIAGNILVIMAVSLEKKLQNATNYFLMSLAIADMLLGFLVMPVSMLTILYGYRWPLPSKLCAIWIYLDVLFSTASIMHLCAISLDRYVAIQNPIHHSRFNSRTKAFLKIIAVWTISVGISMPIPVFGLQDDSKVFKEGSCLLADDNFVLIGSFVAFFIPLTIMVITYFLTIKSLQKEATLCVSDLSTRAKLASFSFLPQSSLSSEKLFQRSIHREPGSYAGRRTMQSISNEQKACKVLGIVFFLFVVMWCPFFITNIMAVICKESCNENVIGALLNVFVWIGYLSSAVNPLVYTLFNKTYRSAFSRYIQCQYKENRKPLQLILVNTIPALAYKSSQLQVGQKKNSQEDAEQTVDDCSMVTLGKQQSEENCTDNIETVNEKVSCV

SMILES	IC50 [1] [nM]	IC50 [2] [nM]
Clc1cccc(N2CCN(Cc3cn(-c4ccccc4)c(-c4ccccc4)n3)CC2)c1	166	717
CCOc1ccccc1N1CCN(Cc2cn(-c3ccc(F)cc3)c(-c3ccc(F)cc3)n2)CC1	51.9	–
FC(F)(F)c1ccc(N2CCN(Cc3cn(-c4ccccc4)c(-c4ccccc4)n3)CC2)cc1	224	1510
Fc1ccc(-c2nc(CN3CCN(c4ccccc4)CC3)cn2-c2ccc(F)cc2)cc1	525	783
COc1ccccc1N1CCN(Cc2cn(-c3ccc(F)cc3)c(-c3ccc(F)cc3)n2)CC1	171	259
COc1ccc(N2CCN(Cc3cn(-c4ccccc4)c(-c4ccccc4)n3)CC2)cc1	8440	1920
FC(F)(F)c1cccc(N2CCN(Cc3cn(-c4ccccc4)c(-c4ccccc4)n3)CC2)c1	206	2130
COc1cccc(N2CCN(Cc3cn(-c4ccccc4)c(-c4ccccc4)n3)CC2)c1	271	2340
CN1CCN(Cc2cn(-c3ccccc3)c(-c3ccccc3)n2)CC1	–	> 10000
Clc1ccc(N2CCN(Cc3cn(-c4ccccc4)c(-c4ccccc4)n3)CC2)cc1	1890	315
c1ccc(CN2CCN(Cc3cn(-c4ccccc4)c(-c4ccccc4)n3)CC2)cc1	1130	2170
CN(C)CCCSc1ccccc1NC(=O)/C=C/c1ccccc1 [CINANSERIN]	–	14.8

More lines, now with the values ahead:

IC50 [1] [nM]	IC50 [2] [nM]	SMILES
806	501	Fc1ccc(N2CCN(Cc3cn(-c4ccccc4)c(-c4ccccc4)n3)CC2)cc1
2700	> 10000	c1ccc(-c2nc(CN3CCN(c4ccccc4)CC3)cn2-c2ccccc2)cc1
56.9	172	CCOc1ccccc1N1CCN(Cc2cn(-c3ccccc3)c(-c3ccccc3)n2)CC1
255	142	Clc1ccccc1N1CCN(Cc2cn(-c3ccccc3)c(-c3ccccc3)n2)CC1
197	2020	c1ccc(-c2nc(CN3CCN(c4ccccn4)CC3)cn2-c2ccccc2)cc1
332	25.3	Fc1ccccc1N1CCN(Cc2cn(-c3ccccc3)c(-c3ccccc3)n2)CC1
–	131	COc1ccccc1N1CCN(Cc2cn(-c3ccccc3)c(-c3ccccc3)n2)CC1
